According to patent US20260217688A1, “INHIBITORS OF JAK2” (Llydaw Therapeutics, Inc., priority 2022, published 2026):
pEC50: −log10 of the molar value.

Columns and labels:
JAK2 JH2 = target: T1, JAK2 JH2 (Homo sapiens, UniProt O60674); assay: JAK2 JH2 TR-FRET Assay; assay type: binding; conditions: JAK2 JH2 1 nM, Tracer ZE84-0003 10 nM
T1 construct: Enzyme: JAK2 JH2, His-Avi-Tag, Biotin-Labeled (BPS Bioscience, Cat #79074) 1 nM; His; purchased BPS Bioscience 79074
Method: Assay Buffer 1×: • 20 mM HEPES pH 7.2-7.4; • 10 mM MgCl2; • 0.015% Brij-35; • 2 mM DTT; • 0.05 mg/ml BSA.
Final assay concentrations: • DMSO: 0.25%; • Streptavidin Tb-cryptate (Cisbio, Cat #610SATLB) 0.2 nM; • Enzyme: JAK2 JH2, His-Avi-Tag, Biotin-Labeled (BPS Bioscience, Cat #79074) 1 nM; • Probe: Tracer ZE84-0003 (ChemRar) 10 nM.
Materials: • Reaction plate: ProxiPlate-384 Plus White Plate (PerkinElmer); • Dilution plate: Diamond Well Plate (Axygen, Cat #P-384-120 SQ-C-S); • Compounds plate: Diamond Well Plate (Axygen, Cat #P-384-120 SQ-C-S).
Assay protocol: • 1. Prepare 400× solutions of compounds in DMSO into Compounds plate; • 2. Prepare Dilution plate: add 39 μL of 1× Assay buffer per well of Dilution plate; • 3. Prepare 2×Tb-cryptate mix in 1× Assay buffer. Add 10 μL of 2×Tb-cryptate mix to K-(Tb-cryptate and Probe without Enzyme) wells and blank (Tb-cryptate without Probe and Enzyme) wells; • 4. Add JAK2 JH2 into the rest of 2×Tb-cryptate mix to make 2×JAK2 JH2+Tb-cryptate mix. Add 10 μL per well into Reaction plate; • 5. Centrifuge plate at 200 g for 1 min; • 6. Dilute 1 μL of 400× compounds in 39 μL 1× Assay buffer in Dilution plate; • 7. Add 2 μL of 10× compounds from Dilution plate to Reaction plate with 10 μL of JAK2 JH2+Tb-cryptate mix; • 8. Centrifuge plate at 200 g for 1 min; • 9. Pre-incubate Reaction plate with compounds 15 min; • 10. Prepare 2.5× Tracer mix; • 11. Add 8 μL of 2.5× Tracer mix into appropriate wells of Reaction plate; • 12. Centrifuge plate at 800 g for 3 min; • 13. Incubate at rt for 15 min; • 14. Measure Fluorescence using Microplate Reader (Ex: TR, Em1/Em2: 482/520). The results of this assay are shown in the Table B. The values of EC50 shown as a letters A-D, where: A≤0.01 μM; 0.01 μM<B≤0.05 μM; 0.05 μM<C≤0.1 μM; D>0.1.

[1] = Proliferation inhibition assay (CellTiter-Glo), Ba/F3 JAK2 wt; assay type: cell-based; conditions: mouse, Ba/F3 (JAK2 wt) cells
Method: (§1) Ba/F3 (JAK2 wt) (ABM, T3076) cells and Ba/F3 (JAK2 V617F) (WuXi AppTec) cells were grown in RPMI-1640 (Gibco, cat. number 21870) supplemented with 10% FBS (Hyclone Laboratories Inc, Cat #SV30160.03), 1× Antibiotic-antimycotic (Gibco, Cat #15240-062), 2× Sodium pyruvate (Paneco, cat #F023), 2× Essential amino acids (Paneco, cat #F115/100), 1× Non-Essential amino acids (Paneco, cat #F116) at 37° C. in 5% CO2 atmosphere.
(§2) For the proliferation inhibition assay Ba/F3 (JAK2 wt) and Ba/F3 (JAK2 V617F) cells were seeded into a CellBIND® 384-well Flat Clear Bottom Black Polystyrene Microplates (Corning, USA, Cat #3770) at a density of 4000 cells per well in complete culture medium with or without 10 ng/ml rmIL-3 (RD systems, USA, Cat #403-ML-025) using Biomek FX/NX (384) liquid handler, 45 μl of cell suspension in complete culture medium per well. 500× compound's stocks in DMSO (Sigma Cat #D2650) were prepared in compounds plate (Diamond Well Plate, Axigen, Cat #P-384-120 SQ-C-S) applying Biomek 2000. 1 μl of 500× compounds stock was added to 49 μl of complete culture medium into Dilution plate (Diamond Well Plate, Axigen, Cat #P-384-120 SQ-C-S), mixed and then 5 μl of 10× compounds solution was transferred to cells using Biomek FX/NX (384) liquid handler. The centrifugation at 100 g for 1 min at Eppendorf 5810 followed. Final DMSO concentration in assay was 0.2%. All treatments were performed in technical and biological duplicates. Treated cells were incubated for 72 h at 37° C. with 5% CO2.
(§3) After 3 days of incubation, CellTiter-Glo Luminescent Cell Viability Assay (Promega) was performed. 10 μl of CellTiter-Glo (Promega, CAT #G7572) was added to the cells using Biomek FX/NX (384) liquid handler. The assay plate was centrifuged at 100 g for 1 min and luminescence signal was measured using Microplate Reader (CLARIOStar).

[2] = Proliferation inhibition assay (CellTiter-Glo), Ba/F3 JAK2 V617F; assay type: cell-based; conditions: mouse, Ba/F3 (JAK2 V617F) cells; with 10 ng/ml rmIL-3, 72 h; read-out: Ba/F3 JAK2 V617F + IL3, CC50 3 days
Method: as §1, §2, §3

Ba/F3 (JAK2 V617F) cells = assay: as above; assay type: cell-based; conditions: Mus musculus, BaF3; without IL3, 72 h; read-out: Ba/F3 JAK2 V617F, CC50 3 days
Method: as §1, §2, §3

[3] = with 10 ng/ml rmIL-3, 72 h, read-out: Ba/F3 JAK2 wt + IL3, CC50 3 days
[4] = without IL3, 72 h, read-out: Ba/F3 JAK2 wt, CC50 3 days

T1 sequence (O60674 545-809 limits assumed): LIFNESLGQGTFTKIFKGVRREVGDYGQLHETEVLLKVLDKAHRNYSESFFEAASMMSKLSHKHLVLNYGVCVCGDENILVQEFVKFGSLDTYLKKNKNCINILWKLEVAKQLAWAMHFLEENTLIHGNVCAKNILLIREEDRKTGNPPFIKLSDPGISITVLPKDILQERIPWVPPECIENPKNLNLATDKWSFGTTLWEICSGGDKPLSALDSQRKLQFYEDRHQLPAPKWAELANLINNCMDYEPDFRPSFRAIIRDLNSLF

Row | SMILES | pEC50 (JAK2 JH2) | CC50 at 72 h [1, 3] [µM] | CC50 at 72 h [1, 4] [µM] | CC50 at 72 h [2] [µM] | CC50 (Ba/F3 (JAK2 V617F) cells) [µM]
1 | COc1c(Nc2nc(Nc3cnn(C)c3)ncc2C(N)=O)cccc1-c1ncn(C)n1 [Compound 1, 4-((2-Methoxy-3-(1-methyl-1H-1,2,4-triazol-3-yl)phenyl)amino)-2-((1-methyl-1H-pyrazol-4-yl)amino)pyrimidine-5-carboxamide] | 7.30 to 8.00 | > 10 | > 10 | 5 to 10 | 1 to 5
2 | COc1c(Nc2nc(Nc3cnn(C)c3)ncc2C(N)=O)cccc1-c1ccccn1 [Compound 2, 4-[2-methoxy-3-(2-pyridyl)anilino]-2-[(1-methylpyrazol-4-yl)amino]pyrimidine-5-carboxamide] | 7.00 to 7.30 | > 10 | > 10 | 1 to 5 | ≤ 0.5
3 | COc1c(Nc2nc(Nc3cnn(C)c3)ncc2C(N)=O)cccc1-c1nnc(C)o1 [Compound 3, 4-[2-methoxy-3-(5-methyl-1,3,4-oxadiazol-2-yl)anilino]-2-[(1-methylpyrazol-4-yl)amino]pyrimidine-5-carboxamide] | 7.30 to 8.00 | > 10 | > 10 | > 10 | 5 to 10
4 | COc1c(Nc2nc(Nc3cnn(C(C)C)c3)ncc2C(N)=O)cccc1-c1ncn(C)n1 [Compound 4, 2-((1-Isopropyl-1H-pyrazol-4-yl)amino)-4-((2-methoxy-3-(1-methyl-1H-1,2,4-triazol-3-yl)phenyl)amino)pyrimidine-5-carboxamide] | ≥ 8.00 | 5 to 10 | 5 to 10 | 1 to 5 | ≤ 0.5
5 | COc1c(Nc2nc(Nc3cnn(CCN(CC(C)C)CC(C)C)c3)ncc2C(N)=O)cccc1-c1ccccn1 [Compound 42, 2-[[1-[2-(diisobutylamino)ethyl]pyrazol-4-yl]amino]-4-[2-methoxy-3-(2-pyridyl)anilino]pyrimidine-5-carboxamide] | < 7.00 | 5 to 10 | – | – | 1 to 5
6 | COc1c(Nc2nc(Nc3cnn(C4CCOCC4)c3)ncc2C(N)=O)cccc1-c1nc2ccccc2o1 [Compound 44, 4-[3-(1,3-benzoxazol-2-yl)-2-methoxy-anilino]-2-[(1-tetrahydropyran-4-ylpyrazol-4-yl)amino]pyrimidine-5-carboxamide] | 7.30 to 8.00 | 1 to 5 | – | – | ≤ 0.5
7 | COc1c(Nc2nc(Nc3cnn(C4CCCCC4)c3)ncc2C(N)=O)cccc1-c1nc2ccccc2o1 [Compound 45, 4-[3-(1,3-benzoxazol-2-yl)-2-methoxy-anilino]-2-[(1-cyclohexylpyrazol-4-yl)amino]pyrimidine-5-carboxamide] | < 7.00 | 5 to 10 | – | – | 0.5 to 1
8 | COc1c(Nc2nc(Nc3cnn(CCCN(C)C)c3)ncc2C(N)=O)cccc1-c1nc2ccccc2o1 [Compound 46, 4-[3-(1,3-benzoxazol-2-yl)-2-methoxy-anilino]-2-[[1-[3-(dimethylamino)propyl]pyrazol-4-yl]amino]pyrimidine-5-carboxamide] | 7.00 to 7.30 | 1 to 5 | – | – | ≤ 0.5
9 | COc1c(Nc2nc(Nc3cnn(C4CCN(C)CC4)c3)ncc2C(N)=O)cccc1-c1ccccn1 [Compound 47] | < 7.00 | 5 to 10 | – | – | 1 to 5
10 | COc1c(Nc2nc(Nc3cnn(C4CCN(C(C)C)CC4)c3)ncc2C(N)=O)cccc1-c1ccccn1 [Compound 48, 2-[[1-(1-isopropyl-4-piperidyl)pyrazol-4-yl]amino]-4-[2-methoxy-3-(2-pyridyl)anilino]pyrimidine-5-carboxamide] | 7.00 to 7.30 | 1 to 5 | – | – | ≤ 0.5
11 | COc1c(Nc2nc(Nc3cnn(C45CC6CC(CC(C6)C4)C5)c3)ncc2C(N)=O)cccc1-c1nc2ccccc2o1 [Compound 49, 2-[[1-(1-adamantyl)pyrazol-4-yl]amino]-4-[3-(1,3-benzoxazol-2-yl)-2-methoxy-anilino]pyrimidine-5-carboxamide] | < 7.00 | 5 to 10 | – | – | 5 to 10
12 | COCCn1cc(Nc2ncc(C(N)=O)c(Nc3cccc(-c4nc5ccccc5o4)c3OC)n2)cn1 [Compound 50] | 7.30 to 8.00 | > 10 | – | – | ≤ 0.5
13 | COCCn1cc(Nc2ncc(C(N)=O)c(Nc3cccc(-c4ncn(C)n4)c3OC)n2)cn1 [Compound 51] | 7.30 to 8.00 | > 10 | – | – | 1 to 5
14 | COCCCn1cc(Nc2ncc(C(N)=O)c(Nc3cccc(-c4nc5ccccc5o4)c3OC)n2)cn1 [Compound 52, 4-[3-(1,3-benzoxazol-2-yl)-2-methoxy-anilino]-2-[[1-(3-methoxypropyl)pyrazol-4-yl]amino]pyrimidine-5-carboxamide] | 7.30 to 8.00 | 1 to 5 | – | – | ≤ 0.5
15 | COCCCn1cc(Nc2ncc(C(N)=O)c(Nc3cccc(-c4ncn(CCCOC)n4)c3OC)n2)cn1 [Compound 53] | 7.30 to 8.00 | > 10 | – | – | 1 to 5
16 | CCOCCn1cc(Nc2ncc(C(N)=O)c(Nc3cccc(-c4nc5ccccc5o4)c3OC)n2)cn1 [Compound 54] | 7.30 to 8.00 | 1 to 5 | – | – | ≤ 0.5
17 | CCOCCn1cc(Nc2ncc(C(N)=O)c(Nc3cccc(-c4ncn(C)n4)c3OC)n2)cn1 [Compound 55, 2-[[1-(2-ethoxyethyl)pyrazol-4-yl]amino]-4-[2-methoxy-3-(1-methyl-1,2,4-triazol-3-yl)anilino]pyrimidine-5-carboxamide] | 7.30 to 8.00 | > 10 | – | – | 1 to 5
18 | COc1c(Nc2nc(Nc3cnn(CC(C)C)c3)ncc2C(N)=O)cccc1-c1nc2ccccc2o1 [Compound 56, 4-[3-(1,3-benzoxazol-2-yl)-2-methoxy-anilino]-2-[(1-isobutylpyrazol-4-yl)amino]pyrimidine-5-carboxamide] | < 7.00 | 5 to 10 | – | – | 0.5 to 1
19 | COc1c(Nc2nc(Nc3cnn(CC(F)(F)F)c3)ncc2C(N)=O)cccc1-c1nc2ccccc2o1 [Compound 57, 4-[3-(1,3-benzoxazol-2-yl)-2-methoxy-anilino]-2-[[1-(2,2,2-trifluoroethyl)pyrazol-4-yl]amino]pyrimidine-5-carboxamide] | < 7.00 | > 10 | – | – | > 10
